# In ChEMBL document CHEMBL2439970 (Bioorg Med Chem Lett, 2013):
# What was measured:
# Format in all cases: ADME, organism-based
# [1] = Clearance in Sprague-Dawley rat at 1 mg/kg, iv and 2 mg/kg, po; details: in vivo
# [2] = Oral bioavailability in Sprague-Dawley rat 2 mg/kg; details: in vivo
# [3] = Volume of distribution at steady state in Sprague-Dawley rat at 1 mg/kg, iv and 2 mg/kg, po; details: in vivo, read-out: Vdss
# [4] = system: Rattus norvegicus; experiment: Dose normalized AUC in Sprague-Dawley rat 2 mg/kg, po; design: dose 2 mg/kg, route oral; details: in vivo
# [5] = Half life in Sprague-Dawley rat at 1 mg/kg, iv and 2 mg/kg, po; details: in vivo
SMILES,clearance [1],bioavailability [2],Vd [3],AUC/dose [4],half-life [5]
O=C1OCCc2cc(CCN3CCN(C(=O)Cc4ccc(-n5cnnn5)cc4)CC3)ccc21,43 mL/min/kg,52%,1.3 L/kg,0.48 µM·kg·h/mg,30 min
O=C1OCc2cc(CCN3CCN(C(=O)Cc4ccc(-n5cnnn5)cc4)CC3)ccc21,40 mL/min/kg,33%,0.66 L/kg,0.34 µM·kg·h/mg,37.2 min
